The assay relates to patients with OA of the knee or hip. In words: Example 2: randomized, double-blind, placebo-controlled study (24-week treatment; SC tanezumab at baseline, week 8, week 16), efficacy. In kind it is in vivo, human. The following applies: for WOMAC Pain subscale Change from Baseline: LS Mean / WOMAC Pain subscale Change from Baseline: LS Mean Difference vs. placebo: Week 2; for PGA-OA: LS Mean (SE) change from Baseline / PGA-OA: LS Mean Difference vs. placebo (SE) / WOMAC Pain: LS Mean Difference vs. placebo (SE) / WOMAC Physical Function: LS Mean (SE) change from Baseline / WOMAC Physical Function: LS Mean Difference vs. placebo (SE) / WOMAC Pain: LS Mean (SE) change from Baseline / % of subjects with ≥50% reduction in the WOMAC Pain subscale / Number of subjects with ≥50% reduction in the WOMAC Pain subscale / WOMAC Pain: LS mean difference±SE versus placebo: Week 24; for WOMAC Pain: LS Mean (SE) change from Baseline: ITT, multiple imputation; for % of subjects with ≥50% reduction in the WOMAC Pain subscale / Number of subjects with ≥50% reduction in the WOMAC Pain subscale: mixed BOCF and LOCF. From the text:
Key inclusion criteria were Western Ontario and McMaster Universities Osteoarthritis Index (WOMAC) Pain and Physical Function scores in the index joint; a Patient Global Assessment of OA (PGA-OA) score of fair, poor, or very poor; a history of insufficient pain relief or intolerance to acetaminophen, oral NSAID, and either tramadol or opioids (or unwilling to take opioids). […] Co-primary endpoints were change from baseline in WOMAC Pain, WOMAC Physical Function, and PGA-OA scores at week 24 compared with placebo. Three key secondary endpoints were: reduction in the WOMAC Pain subscale of 50%, at Week 24, WOMAC Pain subscale change from Baseline to Week 2, and weekly average pain score (based on daily diary) in the index joint change from Baseline to Week 1. Safety, including adjudication of joint safety events, was assessed.

Consider “tanezumab: humanized immunoglobulin G Type 2 (IgG2) monoclonal antibody directed against human nerve growth factor (NGF); SEQ ID NOs: 9 or 11 and 10”, for which, under “2.5 mg SC”, the “WOMAC Pain subscale Change from Baseline: LS Mean” value was −2.02, the “WOMAC Pain subscale Change from Baseline: LS Mean Difference vs. placebo” value is listed as −0.67, the “PGA-OA: LS Mean (SE) change from Baseline” value is given as −0.82 (0.06) and the “PGA-OA: LS Mean Difference vs. placebo (SE)” value is reported as −0.11 (0.07). Moreover, for the setting “2.5 mg SC”, the “WOMAC Pain: LS Mean Difference vs. placebo (SE)” value is recorded as −0.46 (0.18), the “WOMAC Physical Function: LS Mean (SE) change from Baseline” value is −2.70 (0.17), the “WOMAC Physical Function: LS Mean Difference vs. placebo (SE)” value is recorded as −0.59 (0.18) and the “WOMAC Pain: LS Mean (SE) change from Baseline” value is listed as −2.70 (0.17). Moreover, for the setting “2.5 mg SC”, the “% of subjects with ≥50% reduction in the WOMAC Pain subscale” value is reported as “(45.4%)” and the “Number of subjects with ≥50% reduction in the WOMAC Pain subscale” value was determined as 128. Besides, for the setting “2.5 mg, index joint KL2/3”, the “WOMAC Pain: LS mean difference±SE versus placebo” value was −0.19±0.23. For the same substance, the “WOMAC Pain: LS mean difference±SE versus placebo” value (2.5 mg, index joint KL4) was −0.84±0.28. Under “5 mg SC”, the “WOMAC Pain subscale Change from Baseline: LS Mean” value is given as −1.69, the “WOMAC Pain subscale Change from Baseline: LS Mean Difference vs. placebo” value is −0.34, the “PGA-OA: LS Mean (SE) change from Baseline” value is reported as −0.90 (0.06) and the “PGA-OA: LS Mean Difference vs. placebo (SE)” value is recorded as −0.19 (0.07). Further, for the setting “5 mg SC”, the “WOMAC Pain: LS Mean Difference vs. placebo (SE)” value is −0.62 (0.18), the “WOMAC Physical Function: LS Mean (SE) change from Baseline” value is recorded as −2.82 (0.17), the “WOMAC Physical Function: LS Mean Difference vs. placebo (SE)” value is given as −0.71 (0.17) and the “WOMAC Pain: LS Mean (SE) change from Baseline” value is recorded as −2.85 (0.17). For the same substance, for the setting “5 mg SC”, the “% of subjects with ≥50% reduction in the WOMAC Pain subscale” value is “(47.9%)” and the “Number of subjects with ≥50% reduction in the WOMAC Pain subscale” value was 136. Further, the “WOMAC Pain: LS mean difference±SE versus placebo” value (5 mg, index joint KL2/3) is −0.32±0.23. Where the note is “5 mg, index joint KL4”, the “WOMAC Pain: LS mean difference±SE versus placebo” value was −0.98±0.28.

(Values after patent US20220089710A1, “Method of Treating Signs and Symptoms of Osteoarthritis” (Pfizer Inc., priority 2019, published 2022).)
